Source: publication PMC6419424, “Rational protein design of Bacillus sp. MN chitosanase for altered substrate binding and production of specific chitosan oligomers” (Journal of Biological Engineering, 2019)

Molecular target: T1, CSN (BspCsnMN) (Bacillus sp. MN, UniProt H9CXV8)
T1 construct: GH8 chitosanase (EC 3.2.1.132), Strep-tag II fusion (pET-22b(+)::StrepII-csn), expressed in E. coli Rosetta 2 (DE3), Strep-Tactin purified
Assay: UHPLC-ELSD-ESI-MS product quantification, Hill fit
Format: biochemical
Conditions: 40 mM sodium acetate pH 6, 30 °C, 10 min

T1 sequence (H9CXV8 entry or part of it): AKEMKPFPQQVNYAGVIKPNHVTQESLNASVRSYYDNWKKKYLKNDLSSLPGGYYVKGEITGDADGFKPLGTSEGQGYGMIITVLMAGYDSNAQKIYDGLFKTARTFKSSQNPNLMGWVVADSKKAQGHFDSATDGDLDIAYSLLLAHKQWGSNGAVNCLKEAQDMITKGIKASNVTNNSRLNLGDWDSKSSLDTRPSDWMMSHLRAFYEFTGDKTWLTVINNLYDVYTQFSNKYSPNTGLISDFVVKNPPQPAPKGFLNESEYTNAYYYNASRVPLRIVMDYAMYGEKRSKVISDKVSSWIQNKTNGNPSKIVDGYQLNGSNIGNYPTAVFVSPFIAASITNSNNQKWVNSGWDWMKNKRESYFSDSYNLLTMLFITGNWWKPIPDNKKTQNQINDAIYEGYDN

For `N[C@H]1[C@H](O[C@H]2[C@H](O)[C@@H](N)[C@H](O[C@H]3[C@H](O)[C@@H](N)[C@H](O[C@H]4[C@H](O)[C@@H](N)[C@H](O[C@H]5[C@H](O)[C@@H](N)C(O)O[C@@H]5CO)O[C@@H]4CO)O[C@@H]3CO)O[C@@H]2CO)O[C@H](CO)[C@@H](O)[C@@H]1O` (stereo partly shown) [D5], the “UHPLC-ELSD-ESI-MS product quantification, Hill fit” value was “CSN showed high activity on the polymer, and it was even slightly more active on D5”.
